{"source": "patent US12180159B2", "about": "“Activators of the unfolded protein response” (The Board of Trustees of the University of Illinois, priority 2018, dated 2024)", "key": {"[1]": {"system": "TYS-Luc (T47DERαY537S-Luc human breast cancer cells) orthotopic tumors", "experiment": "Orthotopic TYS-Luc mouse xenograft, bioluminescent imaging (BLI) of tumor flux", "assay_type": "in vivo", "protocol": "In a treatment and vehicle-controlled mouse tumor study, human breast cancer cells were engineered to contain both the lethal ERαY537S mutation found in metastatic breast cancer, and the gene for firefly luciferase—when the appropriate chemical is added, the firefly luciferase breaks down the chemical and light is produced. Using a sensitive detector called an imaging system, this allows us to image the tumors inside live mice. This is called bioluminescent imaging, or BLI. Large tumors were allowed to form. Then (−)-105 was injected daily under the skin for three weeks. Using the imaging system, the effect of (−)-105 on the tumors was monitored. At the same time the effect of the vehicle in which (−)-105 was dissolved on tumors was also monitored.\nA study was performed to determine what happens after stopping treatment with (−)-105 (Table 2). The study was designed to show whether the micro-tumors would remain dormant, or whether they would regrow. At the end of the three-week treatment, there is residual material that gives off a tiny amount of light which are termed “micro-tumors”. Based on sensitivity of the imaging system, it is believed these micro-tumors contain anywhere from 0-˜1,000 cancer cells; the micro-tumors will not be visible to the naked eye. Seeing them requires the powerful imaging system, or a microscope. To test whether these cells are either dead, or no longer dividing and are dormant, the cells two and 4 weeks after they stopped receiving any treatment were imaged. This study tested whether growing cancer cells have been eradicated; this study continues.\nIn a 3-week study, large breast tumors were present at start of treatment and regressed as shown in the image of FIG. 17. The study was performed using Orthotopic TYS-Luc (injected cells: T47DERα Y537-Luc human breast cancer cells), e.g., the most lethal ERα mutation in human in metastatic breast cancer. Tumors were grown in NSG mice. Further details are provided in the Examples.\nExperimental Details of the Xenografts: TYS-Luc cells (5,000,000 cells in Matrigel) were injected into the upper mammary fat pad of ovariectomized female NSG (SCID) mice (Jackson labs). After 10 weeks, on day 0, large tumors (size range: 100-600 mm^3) were present. Mice were treated with the vehicle used to dissolve (−)-105, or (−)-105 at 40 mg/kd daily by subcutaneous injection. For bioluminescent imaging (BLI) of the tumors, the mice were anesthetized with isoflurane and Lucerfin, the luciferase substrate, was injected into the mice. Flux, the total member of light photons hitting the detector in one second was measured using an IVIS ([…]). Shown is the flux (in millions of units per second) for the entire area containing each tumor, or an equivalent area when the tumor is tiny or undetectable and the percent change in tumor size at each time a measurement was taken (day 0, day 3, week 1, week 2, week 3). Then treatment was stopped, and another measurement was taken two weeks letter. Note that tumors were also measured with calipers. […] After three days all the (−)-105 tumors has declined to undetectable using calipers."}, "[2]": {"system": "TDG cells (T47DERαD538G)", "experiment": "Trypan Blue exclusion cell death assay, TDG cells", "assay_type": "cell-based, human", "conditions": "dose response, 24 hours, TDG-Luc cells", "source_text": "TRYPAN BLUE: For decades, viable cells have been measured by their ability to exclude the dye Trypan Blue. […] Dead cells, which have lost membrane integrity, take up the dye and are blue. Thus, the percentage of dead cells is the percentage of cells that are Trypan Blue positive out of the total cell population. Quantitative assessment of Trypan Blue uptake uses a cell counter from Fisher. Since the assay is instrument based, there is no observer bias in determining the percentage of Trypan Blue positive cells.\nTRYPAN BLUE ASSAYS: Assays are performed on cells in 6 well plates: 300,000 cells are plated in each well of a 6 well plate in 3 ml of medium. After 24 hours, the DMSO vehicle or the indicated compound is added (in 1000th of the vol.) The cells incubated for an additional 24 hours, and then harvested in 0.25 ml of trypsin, followed after harvest by 0.75 ml of medium. The cells are spun down and resuspended in 100-200 μl of medium left that is over the cell pellet (resuspend cells by pipetting up and down a few times). Add 10 μl to 10 μl of trypan blue. Then 10 μl is inserted into the counting slide. After inserting the slide into the Fisher TC20 counting is automatic (these many cells are needed because an accurate ratio of Trypan Blue positive to Trypan Blue negative cells requires about 200 cells in the field the instrument counts).\nThe Trypan Blue cell death assay was used to evaluate the ability of the active enantiomer of C-105 [(−)-105] to kill ERα positive TDG-Luc cells. For all studies, 300,000 TDG-Luc cells/well in 10% FBS were plated in a 6 well plate in triplicate. 24 hours after plating, the indicated concentrations the active enantiomer of (−)-105, or BHPI (top) ICI, or OHT (Lower left) or (+)-105 (lower right) were added. After 24 hours, the cells were harvested, and the % dead cells was determined by automated Trypan Blue exclusion using the Countess II automated hemocytometer. Percentage of viable cells was calculated by doing 100−(Cell Death %). (n=3±SEM).\nTDG cells were incubated for 24 hours with 75 nM of BHPI or 75 nM of each of the indicated test compounds: 4, 6 and (±)-105 (enantiomers not separated). Cell death was determined using the instrument-based Trypan Blue exclusion assay. Structures are in the Synthesis section. […] (n=3±SEM)."}, "[3]": {"conditions": "after 3 days of treatment, all 5 mice"}}, "note": "Several values for one entry are separate records, joined by “and”; a condition that tells them apart may be missing. Equal values may be shown once.", "data": [{"smiles": "O=C1Nc2c(C(F)(F)F)cccc2C1(c1ccc(O)cc1)c1ccc(OC(F)(F)F)cc1", "note": "(single isomer, unassigned; (-)) [(−)-105, 3-(4-hydroxyphenyl)-3-(4-(trifluoromethoxy)phenyl)-7-(trifluoromethyl)indolin-2-one]", "values": [{"measurement": "micro-tumor regrowth after stopping treatment", "setting": "[1]; 4 weeks after stopping treatment", "value": "NO “MICRO-TUMOR” REGROWTH"}, {"measurement": "tumor shrinkage (regression) by BLI, 4 of the 5 tumors", "setting": "[1]; after 3 days of treatment, 4 of 5 tumors", "value": "more than 99.9%"}, {"measurement": "tumor shrinkage (regression) by BLI, all five tumors", "setting": "[1]; [3]", "value": "more than 99%"}, {"measurement": "tumor size using calipers", "setting": "[1]; [3]", "value": "undetectable"}, {"measurement": "tumor shrinkage by BLI, 3 of the remaining 4 mice", "setting": "[1]; after three weeks", "value": "more than 99.9%"}, {"measurement": "tumor change in one mouse (complete regression)", "setting": "[1]; after three weeks, one mouse", "value": "−100", "unit": "%"}, {"measurement": "Day 0 Flux", "setting": "[1]; per mouse, day 0 (start of treatment, baseline)", "value": "2,130 millions of photons/sec and 277 millions of photons/sec and 72.6 millions of photons/sec and 1,880 millions of photons/sec and 1,650 millions of photons/sec"}, {"measurement": "Day 14 % Change in Tumor Flux", "setting": "[1]; per mouse, day 14 vs day 0", "value": 99.66, "unit": "%"}, {"measurement": "health of the treated mice / toxicity", "setting": "[1]; three-week treatment", "value": "No toxicity"}, {"measurement": "micro-tumor regrowth after stopping treatment", "setting": "[1]; two weeks after treatment was stopped", "value": "the microtumors had not started growing again"}, {"measurement": "tumor size using calipers", "setting": "[1]; within seven days, all 5 tumors", "value": "undetectable"}, {"measurement": "killing of TDG-Luc cells", "setting": "[2]", "value": "superior to BHPI"}]}]}
